{"source": "ChEMBL document CHEMBL4382288", "about": "“Synthesis of 12-O-Mono- and Diglycosyl-oxystearates, a New Class of Agonists for the C-type Lectin Receptor Mincle” (ACS Med Chem Lett, 2019)", "key": {"[1]": {"molecular_target": "T1, C-type lectin domain family 4 member E (Mus musculus) (UniProt Q9R0Q8)", "T1 sequence (whole entry)": "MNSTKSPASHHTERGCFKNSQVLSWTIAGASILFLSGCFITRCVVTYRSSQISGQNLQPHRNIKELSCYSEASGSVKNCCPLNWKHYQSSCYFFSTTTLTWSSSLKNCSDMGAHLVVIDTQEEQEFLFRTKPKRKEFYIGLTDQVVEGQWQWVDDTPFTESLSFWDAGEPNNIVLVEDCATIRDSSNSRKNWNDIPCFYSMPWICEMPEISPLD", "experiment": "Agonist activity at mouse mincle coupled with FcRgamma expressed in 2B4-NFAT-GFP reporter cells at 3 nmol/well after 16 hrs by flow cytometric analysis", "type": "cell-based"}, "[2]": {"molecular_target": "T2, C-type lectin domain family 4 member E (Homo sapiens) (UniProt Q9ULY5)", "T2 sequence (whole entry)": "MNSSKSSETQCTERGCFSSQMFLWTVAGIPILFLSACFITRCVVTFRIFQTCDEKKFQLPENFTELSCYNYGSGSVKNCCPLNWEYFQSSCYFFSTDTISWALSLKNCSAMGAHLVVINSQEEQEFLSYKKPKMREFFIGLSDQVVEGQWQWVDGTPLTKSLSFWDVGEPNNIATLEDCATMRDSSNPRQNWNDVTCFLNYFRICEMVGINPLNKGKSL", "experiment": "Agonist activity at human mincle coupled with FcRgamma expressed in 2B4-NFAT-GFP reporter cells at 3 nmol/well after 16 hrs by flow cytometric analysis", "type": "cell-based"}}, "note": "Activity calls are given as the source filed them. The rule behind the calls is not given here."}
{"smiles": "CCCCCCC(CCCCCCCCCCC(=O)OC)O[C@H]1O[C@H](CO)[C@@H](O)[C@H](O)[C@@H]1O", "note": "(some centres undefined)", "values": [{"measurement": "Activity", "setting": "[1]", "result": "inactive"}, {"measurement": "Activity", "setting": "[2]", "result": "inactive"}]}
{"smiles": "CCCCCCC(CCCCCCCCCCC(=O)OC)O[C@@H]1O[C@H](CO[C@@H]2O[C@H](CO)[C@@H](O)[C@H](O)[C@H]2O)[C@@H](O)[C@H](O)[C@H]1O", "note": "(some centres undefined)", "values": [{"measurement": "Activity", "setting": "[1]", "result": "Active"}]}
{"smiles": "CCCCCCC(CCCCCCCCCCC(=O)OC)O[C@@H]1O[C@H](CO)[C@H](O)[C@H](O)[C@H]1O", "note": "(some centres undefined)", "values": [{"measurement": "Activity", "setting": "[1]", "result": "inactive"}, {"measurement": "Activity", "setting": "[2]", "result": "inactive"}]}
{"smiles": "CCCCCCC(CCCCCCCCCCC(=O)OC)O[C@@H]1O[C@H](CO)[C@@H](O)[C@H](O)[C@@H]1O[C@H]1O[C@H](CO)[C@@H](O)[C@H](O)[C@@H]1O", "note": "(some centres undefined)", "values": [{"measurement": "Activity", "setting": "[1]", "result": "Active"}, {"measurement": "Activity", "setting": "[2]", "result": "Active"}]}
{"smiles": "CCCCCCC(CCCCCCCCCCC(=O)OC)O[C@@H]1O[C@H](CO)[C@@H](O[C@H]2O[C@H](CO)[C@@H](O)[C@H](O)[C@H]2O)[C@H](O)[C@H]1O", "note": "(some centres undefined)", "values": [{"measurement": "Activity", "setting": "[1]", "result": "inactive"}, {"measurement": "Activity", "setting": "[2]", "result": "inactive"}]}
{"smiles": "CCCCCCC(CCCCCCCCCCC(=O)OC)O[C@@H]1O[C@H](CO[C@H]2O[C@H](CO)[C@@H](O)[C@H](O)[C@H]2O)[C@@H](O)[C@H](O)[C@H]1O", "note": "(some centres undefined)", "values": [{"measurement": "Activity", "setting": "[1]", "result": "inactive"}, {"measurement": "Activity", "setting": "[2]", "result": "inactive"}]}
{"smiles": "CCCCCCC(CCCCCCCCCCC(=O)OC)O[C@H]1O[C@H](CO)[C@@H](O)[C@H](O)[C@H]1O", "note": "(some centres undefined)", "values": [{"measurement": "Activity", "setting": "[1]", "result": "inactive"}, {"measurement": "Activity", "setting": "[2]", "result": "inactive"}]}
{"smiles": "CCCCCCC(CCCCCCCCCCC(=O)OC)O[C@@H]1O[C@H](CO)[C@@H](O[C@@H]2O[C@H](CO)[C@@H](O)[C@H](O)[C@H]2O)[C@H](O)[C@H]1O", "note": "(some centres undefined)", "values": [{"measurement": "Activity", "setting": "[1]", "result": "inactive"}, {"measurement": "Activity", "setting": "[2]", "result": "inactive"}]}
{"smiles": "CCCCCCC(CCCCCCCCCCC(=O)OC)O[C@H]1O[C@H](CO)[C@@H](O)[C@H](O)[C@@H]1O[C@@H]1O[C@H](CO)[C@@H](O)[C@H](O)[C@@H]1O", "note": "(some centres undefined)", "values": [{"measurement": "Activity", "setting": "[1]", "result": "Active"}, {"measurement": "Activity", "setting": "[2]", "result": "Active"}]}
{"smiles": "CCCCCCC(CCCCCCCCCCC(=O)OC)O[C@H]1O[C@H](CO)[C@@H](O)[C@H](O)[C@@H]1O[C@H]1O[C@H](CO)[C@@H](O)[C@H](O)[C@@H]1O", "note": "(some centres undefined)", "values": [{"measurement": "Activity", "setting": "[1]", "result": "Active"}, {"measurement": "Activity", "setting": "[2]", "result": "Active"}]}
{"smiles": "CCCCCCC(CCCCCCCCCCC(=O)OC)O[C@@H]1O[C@H](CO[C@H]2O[C@H](CO)[C@H](O)[C@H](O)[C@H]2O)[C@@H](O)[C@H](O)[C@H]1O", "note": "(some centres undefined)", "values": [{"measurement": "Activity", "setting": "[1]", "result": "inactive"}, {"measurement": "Activity", "setting": "[2]", "result": "inactive"}]}
{"smiles": "CCCCCCC(CCCCCCCCCCC(=O)OC)O[C@@H]1O[C@H](CO)[C@@H](O)[C@H](O)[C@H]1O", "note": "(some centres undefined)", "values": [{"measurement": "Activity", "setting": "[1]", "result": "inactive"}, {"measurement": "Activity", "setting": "[2]", "result": "inactive"}]}
{"smiles": "CCCCCCC(CCCCCCCCCCC(=O)OC)O[C@H]1O[C@H](CO)[C@H](O)[C@H](O)[C@H]1O", "note": "(some centres undefined)", "values": [{"measurement": "Activity", "setting": "[1]", "result": "inactive"}, {"measurement": "Activity", "setting": "[2]", "result": "inactive"}]}
{"smiles": "CCCCCCC(CCCCCCCCCCC(=O)OC)O[C@@H]1O[C@H](CO)[C@@H](O)[C@H](O)[C@@H]1O[C@@H]1O[C@H](CO)[C@@H](O)[C@H](O)[C@@H]1O", "note": "(some centres undefined)", "values": [{"measurement": "Activity", "setting": "[1]", "result": "Active"}, {"measurement": "Activity", "setting": "[2]", "result": "Active"}]}
{"smiles": "CCCCCCC(CCCCCCCCCCC(=O)OC)O[C@@H]1O[C@H](CO)[C@@H](O)[C@H](O)[C@@H]1O", "note": "(some centres undefined)", "values": [{"measurement": "Activity", "setting": "[1]", "result": "inactive"}, {"measurement": "Activity", "setting": "[2]", "result": "inactive"}]}
